# Measurements from patent US5686421A, “Hydantoin derivates” (Hoechst Aktiengesellschaft, priority 1990, dated 1997).
# Where two headings read alike, the source gives them in different places.
# Tested on: human GFP (gel-filtered platelets)
# Test: Inhibition of platelet aggregation, human gel-filtered platelets stimulated with ADP or thrombin
# Assay type: cell-based
# Text: The compounds are particularly tested for their inhibitory action on the aggregation of blood platelets and the adhesion of fibrinogen to blood platelets. Gel-filtered blood platelets from donated human blood are used and are activated with ADP or thrombin.
# Inhibition of platelet aggregation to human GFP (gel-filtered platelets) stimulated with adenosine diphosphate (ADP) or thrombin (THR) (Marguerie, Plow and Edgington, J. Biol. Chem. 254 (1979) 5357-5363)
# [1] = human GFP stimulated with adenosine diphosphate (ADP), read-out: IC50 (μM) ADP
# [2] = human GFP stimulated with thrombin (THR), read-out: IC50 (μM) THR
Molecule,IC50 [1] [µM],IC50 [2] [µM]
N=C(N)NCCC[C@@H](N)C(=O)NCC(=O)N[C@@H](CC(=O)O)C(N)=O [HDArgGlyAspNH2],500,100
ZDArgGlyAspNHMbh,20,20
N=C(N)NCCC[C@H](N)C(=O)NCC(=O)N[C@@H](CC(=O)O)C(N)=O [HArgGlyAspNH2],500,200
"COc1ccc(C(NC(=O)[C@H](CC(=O)O)NC(=O)CN2C(=O)N[C@H](CCCN=C(N)N)C2=O)c2ccc(OC)cc2)cc1 [[5-(R)-(3-guanidino-propyl)-2,4-dioxo-imidazolin-3-yl]acetyl Asp 4,4'-dimethoxybenzhydrylamide]",4,3
"N=C(N)NCCC[C@H]1NC(=O)N(CC(=O)N[C@@H](CC(=O)O)C(N)=O)C1=O [[5-(R)-(3-guanidino-propyl)-2,4-dioxo-imidazolidin-3-yl]acetyl-L-Asp-amide]",20,15
ZDArgGlyAspNH2,100,80
"COc1ccc(C(NC(=O)[C@H](CC(=O)O)NC(=O)CN2C(=O)N[C@@H](CCCN=C(N)N)C2=O)c2ccc(OC)cc2)cc1 [[5-(S)-(3-guanidino-propyl)-2,4-dioxo-imidazolidin-3-yl]acetyl-Asp 4,4'-dimethoxybenzhydrylamide]",10,4
"NC(=O)[C@H](CC(=O)O)NC(=O)CN1C(=O)N[C@@H](CCCN=C(N)N)C1=O [[5-(S)-(3-guanidinopropyl)-2,4-dioxo-imidazolidin-3-yl]acetyl-Asp-amide]",40,40
